Assay results published in patent publication US20190388425A1, “SUBSTITUTED IMIDAZOPYRIDINPYRIMIDINES” (Bayer Pharma Aktiengesellschaft, priority 2017, published 2019).

Molecular target: T1, human full-length MKNK1 (Homo sapiens, UniProt Q9BUB5, T385D)
T1 construct: GST (N); purchased Carna Biosciences 02-145; host or cells: insect cells (baculovirus expression system)
Assay: MKNK1 kinase high ATP assay (TR-FRET)
Assay type: biochemical
Details: TR-FRET, 2 mM ATP (high ATP), 15 min preincubation with enzyme, 30 min reaction at 22° C.; read-out: MKNK1 IC50
Method in brief: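 Full-length human MKNK1 (T385D) preincubated 15 min at 22 °C with compound in HEPES pH 7.5/MgCl2/DTT buffer; reaction with 2 mM ATP (final) and 0.06 μM biotinylated peptide (final), 30 min at 22 °C.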

T1 sequence (Q9BUB5 1-424 isoform Q9BUB5-2 T344D): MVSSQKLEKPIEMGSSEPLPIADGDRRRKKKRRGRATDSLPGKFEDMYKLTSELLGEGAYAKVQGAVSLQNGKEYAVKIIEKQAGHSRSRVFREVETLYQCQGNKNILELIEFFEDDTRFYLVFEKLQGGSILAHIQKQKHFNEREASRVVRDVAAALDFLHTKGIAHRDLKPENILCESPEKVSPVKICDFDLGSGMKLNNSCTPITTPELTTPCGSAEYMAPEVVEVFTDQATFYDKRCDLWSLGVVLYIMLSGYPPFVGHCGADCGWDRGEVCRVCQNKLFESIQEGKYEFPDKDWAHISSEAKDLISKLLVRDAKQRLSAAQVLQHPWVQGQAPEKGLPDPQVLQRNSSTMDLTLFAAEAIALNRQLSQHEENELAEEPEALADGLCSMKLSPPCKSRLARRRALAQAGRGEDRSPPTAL

SMILES | IC50 [nM]
C[C@@H]1COCCN1C(=O)[C@H]1CCc2c(sc3ncnc(Nc4cc(Cl)c5n(c4=O)C4(CCCCC4)NC5=O)c23)C1 [Example 79, 8′-Chloro-6′-{[(7S)-7-{[(3R)-3-methylmorpholin-4-yl]carbonyl}-5,6,7,8-tetrahydro[1]benzothieno[2,3-d]pyrimidin-4-yl]amino}-2′H-spiro[cyclohexane-1,3′-imidazo[1,5-a]pyridine]-1′,5′-dione] | 0.3
C[C@@H]1CN(C(=O)[C@H]2CCc3c(sc4ncnc(Nc5cc(Cl)c6n(c5=O)C5(CCCCC5)NC6=O)c34)C2)CCN1C [Example 80, 8′-Chloro-6′-{[(7S)-7-{[(3R)-3,4-dimethylpiperazin-1-yl]carbonyl}-5,6,7,8-tetrahydro[1]benzothieno[2,3-d]pyrimidin-4-yl]amino}-2′H-spiro[cyclohexane-1,3′-imidazo[1,5-a]pyridine]-1′,5′-dione] | 0.2
O=C1NC2(CCCCC2)n2c1c(Cl)cc(Nc1ncnc3sc4c(c13)CC[C@H](C(=O)N1C[C@H]3C[C@@H]1CO3)C4)c2=O [Example 81, 8′-Chloro-6′-({(7S)-7-[(1R,4R)-2-oxa-5-azabicyclo[2.2.1]hept-5-ylcarbonyl]-5,6,7,8-tetrahydro[1]benzothieno[2,3-d]pyrimidin-4-yl}amino)-2′H-spiro[cyclohexane-1,3′-imidazo[1,5-a]pyridine]-1′,5′-dione] | 0.3
Cc1cc(Nc2ncnc3sc4c(c23)CC[C@H](C(=O)N2CC(C#N)C2)C4)c(=O)n2c1C(=O)N[C@]21CC[C@@](O)(C(F)(F)F)CC1 [Example 82, 1-{[(7S)-4-{[(cis)-4-Hydroxy-8′-methyl-1′,5′-dioxo-4-(trifluoromethyl)-1′,5′-dihydro-2′H-spiro[cyclohexane-1,3′-imidazo[1,5-a]pyridin]-6′-yl]amino}-5,6,7,8-tetrahydro[1]benzothieno[2,3-d]pyrimidin-7-yl]carbonyl}azetidine-3-carbonitrile] | 1.5
Cc1cc(Nc2ncnc3sc4c(c23)CC[C@H](C(=O)N2CCN(C)[C@H](C)C2)C4)c(=O)n2c1C(=O)N[C@]21CC[C@@](O)(C(F)(F)F)CC1 [Example 83, (cis)-6′-{[(7S)-7-{[(3R)-3,4-Dimethylpiperazin-1-yl]carbonyl}-5,6,7,8-tetrahydro[1]benzothieno[2,3-d]pyrimidin-4-yl]amino}-4-hydroxy-8′-methyl-4-(trifluoromethyl)-2′H-spiro[cyclohexane-1,3′-imidazo[1,5-a]pyridine]-1′,5′-dione] | 1.5
O=C1NC2(CCCC2)n2c1c(Cl)cc(Nc1ncnc3sc4c(c13)CC[C@H](C(=O)O)C4)c2=O [Example 84, (7S)-4-[(8′-Chloro-1′,5′-dioxo-1′,5′-dihydro-2′H-spiro[cyclopentane-1,3′-imidazo[1,5-a]pyridin]-6′-yl)amino]-5,6,7,8-tetrahydro[1]benzothieno[2,3-d]pyrimidine-7-carboxylic acid] | 1
NC(=O)[C@H]1CCc2c(sc3ncnc(Nc4cc(Cl)c5n(c4=O)C4(CCCC4)NC5=O)c23)C1 [Example 85, (7S)-4-[(8′-Chloro-1′,5′-dioxo-1′,5′-dihydro-2′H-spiro[cyclopentane-1,3′-imidazo[1,5-a]pyridin]-6′-yl)amino]-5,6,7,8-tetrahydro[1]benzothieno[2,3-d]pyrimidine-7-carboxamide] | 0.2
CN(C)C(=O)[C@H]1CCc2c(sc3ncnc(Nc4cc(Cl)c5n(c4=O)C4(CCCC4)NC5=O)c23)C1 [Example 86, (7S)-4-[(8′-Chloro-1′,5′-dioxo-1′,5′-dihydro-2′H-spiro[cyclopentane-1,3′-imidazo[1,5-a]pyridin]-6′-yl)amino]-N,N-dimethyl-5,6,7,8-tetrahydro[1]benzothieno[2,3-d]pyrimidine-7-carboxamide] | 0.1
O=C1NC2(CCCC2)n2c1c(Cl)cc(Nc1ncnc3sc4c(c13)CC[C@H](C(=O)N1CCC1)C4)c2=O [Example 87, 6′-{[(7S)-7-(Azetidine-1-carbonyl)-5,6,7,8-tetrahydro[1]benzothieno[2,3-d]pyrimidin-4-yl]amino}-8′-chloro-2′H-spiro[cyclopentane-1,3′-imidazo[1,5-a]pyridine]-1′,5′-dione] | 0.2
N#CC1CN(C(=O)[C@H]2CCc3c(sc4ncnc(Nc5cc(Cl)c6n(c5=O)C5(CCCC5)NC6=O)c34)C2)C1 [Example 88, 1-{(7S)-4-[(8′-Chloro-1′,5′-dioxo-1′,5′-dihydro-2′H-spiro[cyclopentane-1,3′-imidazo[1,5-a]pyridin]-6′-yl)amino]-5,6,7,8-tetrahydro[1]benzothieno[2,3-d]pyrimidine-7-carbonyl}azetidine-3-carbonitrile] | < 0.1
CN(C)[C@H]1CCN(C(=O)[C@H]2CCc3c(sc4ncnc(Nc5cc(Cl)c6n(c5=O)C5(CCCC5)NC6=O)c34)C2)C1 [Example 89, 8′-Chloro-6′-({(7S)-7-[(3S)-3-(dimethylamino)pyrrolidine-1-carbonyl]-5,6,7,8-tetrahydro[1]benzothieno[2,3-d]pyrimidin-4-yl}amino)-2′H-spiro[cyclopentane-1,3′-imidazo[1,5-a]pyridine]-1′,5′-dione] | < 0.1
C[C@@H]1COCCN1C(=O)[C@H]1CCc2c(sc3ncnc(Nc4cc(Cl)c5n(c4=O)C4(CCCC4)NC5=O)c23)C1 [Example 90, 8′-Chloro-6′-({(7S)-7-[(3R)-3-methylmorpholine-4-carbonyl]-5,6,7,8-tetrahydro[1]benzothieno[2,3-d]pyrimidin-4-yl}amino)-2′H-spiro[cyclopentane-1,3′-imidazo[1,5-a]pyridine]-1′,5′-dione] | 0.3
C[C@@H]1CN(C(=O)[C@H]2CCc3c(sc4ncnc(Nc5cc(Cl)c6n(c5=O)C5(CCCC5)NC6=O)c34)C2)CCN1C [Example 91, 8′-Chloro-6′-({(7S)-7-[(3R)-3,4-dimethylpiperazine-1-carbonyl]-5,6,7,8-tetrahydro[1]benzothieno[2,3-d]pyrimidin-4-yl}amino)-2′H-spiro[cyclopentane-1,3′-imidazo[1,5-a]pyridine]-1′,5′-dione] | < 0.1
O=C1NC2(CCCC2)n2c1c(Cl)cc(Nc1ncnc3sc4c(c13)CC[C@H](C(=O)N1C[C@H]3C[C@@H]1CO3)C4)c2=O [Example 92, 8′-Chloro-6′-({(7S)-7-[(1R,4R)-2-oxa-5-azabicyclo[2.2.1]heptane-5-carbonyl]-5,6,7,8-tetrahydro[1]benzothieno[2,3-d]pyrimidin-4-yl}amino)-2′H-spiro[cyclopentane-1,3′-imidazo[1,5-a]pyridine]-1′,5′-dione] | 1
O=C1NC2(CCC2)n2c1c(Cl)cc(Nc1ncnc3sc4c(c13)CC[C@H](C(=O)O)C4)c2=O [Example 93, (7S)-4-[(8′-Chloro-1′,5′-dioxo-1′,5′-dihydro-2′H-spiro[cyclobutane-1,3′-imidazo[1,5-a]pyridin]-6′-yl)amino]-5,6,7,8-tetrahydro[1]benzothieno[2,3-d]pyrimidine-7-carboxylic acid] | 1.3
NC(=O)[C@H]1CCc2c(sc3ncnc(Nc4cc(Cl)c5n(c4=O)C4(CCC4)NC5=O)c23)C1 [Example 94, (7S)-4-[(8′-Chloro-1′,5′-dioxo-1′,5′-dihydro-2′H-spiro[cyclobutane-1,3′-imidazo[1,5-a]pyridin]-6′-yl)amino]-5,6,7,8-tetrahydro[1]benzothieno[2,3-d]pyrimidine-7-carboxamide] | 0.2
